According to ChEMBL document CHEMBL1151339, “Antitumor agents from bohemic acid complex, III. The isolation of marcellomycin, musettamycin, rudolphomycin, mimimycin, collinemycin, alcindoromycin, and bohemamine” (J Nat Prod, 1980):
≈ marks a conversion by molar mass, not a printed value.

Legend:
[1] = test system: L1210; test: Antitumor activity against mouse L1210 cells xenografted in BDF1 mouse assessed as median survival time at 12.8 mg/kg, ip; assay type: functional; conditions: route intraperitoneal
[2] = test system: L1210; test: Antitumor activity against mouse L1210 cells xenografted in BDF1 mouse assessed as change in tumor average weight at 51.2 mg/kg, ip; assay type: functional; conditions: route intraperitoneal
[3] = test system: Streptococcus pneumoniae; test: Antibacterial activity against Streptococcus pneumoniae A-9585 by 2-fold tube dilution method; assay type: functional
[4] = test system: L1210; test: Antitumor activity against mouse L1210 cells xenografted in BDF1 mouse assessed as median survival time at 1.6 mg/kg, ip; assay type: functional; conditions: route intraperitoneal
[5] = test system: Streptococcus pyogenes; test: Antibacterial activity against Streptococcus pyogenes A-9604 by 2-fold tube dilution method; assay type: functional
[6] = test system: Pseudomonas aeruginosa; test: Antibacterial activity against Pseudomonas aeruginosa A-9843A by 2-fold tube dilution method; assay type: functional
[7] = test system: L1210; test: Antitumor activity against mouse L1210 cells xenografted in BDF1 mouse assessed as median survival time at 3.2 mg/kg, ip; assay type: functional; conditions: route intraperitoneal
[8] = test system: L1210; test: Antitumor activity against mouse L1210 cells xenografted in BDF1 mouse assessed as change in tumor average weight at 12.8 mg/kg, ip; assay type: functional; conditions: route intraperitoneal
[9] = test system: L1210; test: Antitumor activity against mouse L1210 cells xenografted in BDF1 mouse assessed as change in tumor average weight at 25.6 mg/kg, ip; assay type: functional; conditions: route intraperitoneal
[10] = test system: Mus musculus; test: Toxicity in BDF1 mouse xenografted with mouse L1210 cells assessed as survival at 1.6 mg/kg, ip after 5 days; assay type: organism-based; design: dose 1.6 mg/kg, route intraperitoneal; conditions: in vivo, 120 h
[11] = test system: L1210; test: Antitumor activity against mouse L1210 cells xenografted in BDF1 mouse at 3.2 mg/kg, ip relative to control; assay type: functional; conditions: route intraperitoneal
[12] = test system: Enterobacter cloacae; test: Antibacterial activity against Enterobacter cloacae A-9659 by 2-fold tube dilution method; assay type: functional
[13] = test system: Candida albicans; test: Antifungal activity against Candida albicans A15049 by 2-fold tube dilution method; assay type: functional
[14] = test system: L1210; test: Antitumor activity against mouse L1210 cells xenografted in BDF1 mouse at 51.2 mg/kg, ip relative to control; assay type: functional; conditions: route intraperitoneal
[15] = test system: L1210; test: Antitumor activity against mouse L1210 cells xenografted in BDF1 mouse assessed as change in tumor average weight at 6.4 mg/kg, ip; assay type: functional; conditions: route intraperitoneal
[16] = test system: Pichia kudriavzevii; test: Antifungal activity against Candida krusei A15052 by 2-fold tube dilution method; assay type: functional
[17] = test system: Serratia marcescens; test: Antibacterial activity against Serratia marcescens A20019 by 2-fold tube dilution method; assay type: functional
[18] = test system: Enterococcus faecalis; test: Antibacterial activity against Streptococcus faecalis A20688 by 2-fold tube dilution method; assay type: functional
[19] = test system: Klebsiella pneumoniae; test: Antibacterial activity against Klebsiella pneumoniae A15130 by 2-fold tube dilution method; assay type: functional
[20] = test system: Candida albicans; test: Antifungal activity against Candida albicans A-9540 by 2-fold tube dilution method; assay type: functional
[21] = test system: Mus musculus; test: Toxicity in BDF1 mouse xenografted with mouse L1210 cells assessed as survival at 25.6 mg/kg, ip after 5 days; assay type: organism-based; design: dose 25.6 mg/kg, route intraperitoneal; conditions: in vivo, 120 h
[22] = test system: Staphylococcus; test: Antibacterial activity against penicillin resistant Staphylococcus A-9606 by 2-fold tube dilution method; assay type: functional
[23] = test system: Candida albicans; test: Antifungal activity against Candida albicans A15050 by 2-fold tube dilution method; assay type: functional
[24] = test system: Mus musculus; test: Toxicity in BDF1 mouse xenografted with mouse L1210 cells assessed as survival at 12.8 mg/kg, ip after 5 days; assay type: organism-based; design: dose 12.8 mg/kg, route intraperitoneal; conditions: in vivo, 120 h
[25] = test system: Proteus mirabilis; test: Antibacterial activity against Proteus mirabilis A-9900 by 2-fold tube dilution method; assay type: functional
[26] = test system: Escherichia coli; test: Antibacterial activity against Escherichia coli A15119 by 2-fold tube dilution method; assay type: functional
[27] = test system: Staphylococcus aureus; test: Antibacterial activity against Staphylococcus aureus A-9497 by 2-fold tube dilution method; assay type: functional
[28] = test system: L1210; test: Antitumor activity against mouse L1210 cells xenografted in BDF1 mouse at 6.4 mg/kg, ip relative to control; assay type: functional; conditions: route intraperitoneal
[29] = test system: Microsporum canis; test: Antifungal activity against Microsporum canis A-9872 by 2-fold tube dilution method; assay type: functional
[30] = test system: Candida tropicalis; test: Antifungal activity against Candida tropicalis A15051 by 2-fold tube dilution method; assay type: functional
[31] = test system: Mus musculus; test: Toxicity in BDF1 mouse xenografted with mouse L1210 cells assessed as survival at 3.2 mg/kg, ip after 5 days; assay type: organism-based; design: dose 3.2 mg/kg, route intraperitoneal; conditions: in vivo, 120 h
[32] = test system: L1210; test: Antitumor activity against mouse L1210 cells xenografted in BDF1 mouse assessed as median survival time at 6.4 mg/kg, ip; assay type: functional; conditions: route intraperitoneal
[33] = test system: Proteus vulgaris; test: Antibacterial activity against Proteus vulgaris A21559 by 2-fold tube dilution method; assay type: functional
[34] = test system: Mus musculus; test: Toxicity in BDF1 mouse xenografted with mouse L1210 cells assessed as survival at 6.4 mg/kg, ip after 5 days; assay type: organism-based; design: dose 6.4 mg/kg, route intraperitoneal; conditions: in vivo, 120 h
[35] = test system: L1210; test: Antitumor activity against mouse L1210 cells xenografted in BDF1 mouse assessed as change in tumor average weight at 3.2 mg/kg, ip; assay type: functional; conditions: route intraperitoneal
[36] = test system: L1210; test: Antitumor activity against mouse L1210 cells xenografted in BDF1 mouse at 25.6 mg/kg, ip relative to control; assay type: functional; conditions: route intraperitoneal
[37] = test system: L1210; test: Antitumor activity against mouse L1210 cells xenografted in BDF1 mouse assessed as median survival time at 25.6 mg/kg, ip; assay type: functional; conditions: route intraperitoneal
[38] = test system: Mus musculus; test: Toxicity in BDF1 mouse xenografted with mouse L1210 cells assessed as survival at 51.2 mg/kg, ip after 5 days; assay type: organism-based; design: dose 51.2 mg/kg, route intraperitoneal; conditions: in vivo, 120 h
[39] = test system: L1210; test: Antitumor activity against mouse L1210 cells xenografted in BDF1 mouse at 12.8 mg/kg, ip relative to control; assay type: functional; conditions: route intraperitoneal
[40] = test system: Trichophyton mentagrophytes; test: Antifungal activity against Trichophyton mentagrophytes A-9870 by 2-fold tube dilution method; assay type: functional
[41] = test system: L1210; test: Antitumor activity against mouse L1210 cells xenografted in BDF1 mouse assessed as change in tumor average weight at 1.6 mg/kg, ip; assay type: functional; conditions: route intraperitoneal
[42] = test system: Escherichia coli; test: Antibacterial activity against Escherichia coli A20341-1 by 2-fold tube dilution method; assay type: functional
[43] = test system: L1210; test: Antitumor activity against mouse L1210 cells xenografted in BDF1 mouse assessed as median survival time at 51.2 mg/kg, ip; assay type: functional; conditions: route intraperitoneal
[44] = test system: L1210; test: Antitumor activity against mouse L1210 cells xenografted in BDF1 mouse at 1.6 mg/kg, ip relative to control; assay type: functional; conditions: route intraperitoneal

Q: For `CC[C@@]1(O)C[C@H](O[C@H]2C[C@H](NC)[C@H](O[C@H]3C[C@H](O)[C@H](O[C@@H]4C[C@H](O)[C@H](O)[C@H](C)O4)[C@H](C)O3)[C@@H](C)O2)c2c(cc3c(c2O)C(=O)c2c(O)ccc(O)c2C3=O)[C@H]1C(=O)OC` [ALCINDOROMYCIN], which Activity [1] is on record?
A: 9.5 days

Q: What about the Activity [2] of the same compound?
A: -2.7 g

Q: And the MIC [3]?
A: 1 µg/mL (≈ 1.2 µM)

Q: And the Activity [4]?
A: 7 days

Q: And the MIC [5]?
A: 2 µg/mL (≈ 2.4 µM)

Q: What about the MIC [6] of the same compound?
A: > 125 µg/mL

Q: And the Activity [7]?
A: 8.5 days

Q: What about the Activity [8] of the same compound?
A: -0.8 g

Q: And the Activity [9]?
A: -1.9 g

Q: And the Activity [10]?
A: Non-toxic

Q: What about the T/C [11] of the same compound?
A: 113%

Q: What about the MIC [12] of the same compound?
A: > 125 µg/mL

Q: And the MIC [13]?
A: > 16 µg/mL

Q: And the T/C [14]?
A: 147%

Q: And the Activity [15]?
A: 0.6 g

Q: What about the MIC [16] of the same compound?
A: > 16 µg/mL

Q: What about the MIC [17] of the same compound?
A: > 125 µg/mL

Q: And the MIC [18]?
A: 8 µg/mL (≈ 9.62 µM)

Q: And the MIC [19]?
A: > 125 µg/mL

Q: What about the MIC [20] of the same compound?
A: > 16 µg/mL

Q: And the Activity [21]?
A: Non-toxic

Q: And the MIC [22]?
A: 63 µg/mL (≈ 75.7 µM)

Q: And the MIC [23]?
A: > 16 µg/mL

Q: What about the Activity [24] of the same compound?
A: Non-toxic

Q: And the MIC [25]?
A: > 125 µg/mL

Q: What about the MIC [26] of the same compound?
A: > 125 µg/mL

Q: And the MIC [27]?
A: 8 µg/mL (≈ 9.62 µM)

Q: What about the T/C [28] of the same compound?
A: 107%

Q: What about the MIC [29] of the same compound?
A: > 16 µg/mL

Q: And the MIC [30]?
A: > 16 µg/mL

Q: What about the Activity [31] of the same compound?
A: Non-toxic

Q: What about the Activity [32] of the same compound?
A: 8 days

Q: And the MIC [33]?
A: > 125 µg/mL

Q: What about the Activity [34] of the same compound?
A: Non-toxic

Q: And the Activity [35]?
A: 0.5 g

Q: What about the T/C [36] of the same compound?
A: 133%

Q: What about the Activity [37] of the same compound?
A: 10 days

Q: And the Activity [38]?
A: Non-toxic

Q: And the T/C [39]?
A: 128%

Q: What about the MIC [40] of the same compound?
A: > 16 µg/mL

Q: And the Activity [41]?
A: 1.3 g

Q: What about the MIC [42] of the same compound?
A: > 125 µg/mL

Q: What about the Activity [43] of the same compound?
A: 11 days

Q: What about the T/C [44] of the same compound?
A: 93%
